Legend:
[1] = tested on: unanaesthetized, hypertension-suffering rat; assay: Antihypertensive activity (systolic arterial pressure), oral; format: in vivo; settings: 60 mg/kg, hypertensive rat, 3 hours
Procedure: (2) The antihypertensive activity was measured on unanaesthetized, hypertension-suffering rat. The tested substances were orally given at a rate of 60 mg/kg. The systolic arterial pressure was measured every 30 minutes for 2 hours before and for 3 hours after the tested product was given. Results are expressed as follows: […]
O: no reduction of arterial pressure.
+: reduction lower than 10 mm Hg.
++: reduction of 10 to 20 mm Hg.
+++: reduction higher than 20 mm Hg.

femoral artery = assay: Vasodilator activity, femoral artery (technique of perfused paw); format: in vivo; parameters: key: O: no action; +: slight activity; ++: effect equal to half the effect of papaverine; +++: effect equal to that of papaverine; ++++: effect higher than that of papaverine; settings: intra-arterial, 30 mg/kg, anaesthetized dog, vs papaverine at same dose
Procedure: (3) The vasodilator activity was measured at the level of femoral artery on anaesthetized dog (technique of perfused paw). The tested substances were given intra-arterially at the rate of 30 mg/kg. Results are expressed with respect to papaverine tested at the same dose.
++: effect equal to half the effect of papaverine.
+++: effect equal to that of papaverine.
++++: effect higher than that of papaverine.

[2] = tested on: guinea-pig ileum (histamine contractions); assay: Antispasmodic activity in vitro, contractions caused by histamine; settings: added 15 minutes before spasm-producing agent
Procedure: (§1) (4) The antispasmodic activity was measured in vitro, on guinea-pig ileum, the contractions of which were caused by histammne (Hist.), acetylcholine (Achol) or barium chloride (BaCl2). The tested products were added to perfusion bath 15 minutes before the spasm-producing agents.
(§2) The dose is given in micograms (μg) per ml of bath causing complete spasm inhibition.

[3] = tested on: guinea-pig ileum (acetylcholine contractions); assay: Antispasmodic activity in vitro, contractions caused by acetylcholine; settings: added 15 minutes before spasm-producing agent
Procedure: as §1, §2

[4] = Acute toxicity, oral, LD50 (Litchfield and Wilcoxon); settings: mouse, in vivo, fasted male mice, confidence limits p=95% in brackets
Procedure: (1) The acute toxicity was determined on fasted male mice. The tested substances were orally administered and LD50 values (lethal dose for 50% of animals) were calculated according to the method of Litchfield and Wilcoxon (J. Pharmacol. exp. Ther. 96, 94-113, 1949). These LD50 values are given in mg/kg and also, when possible, with their confidence limits for p=95%.

| Molecule | ANTIHYPERTENSIVE ACTIVITY [1] | VASODILATOR ACTIVITY (femoral artery) | ANTISPASMODIC ACTIVITY HIST. (dose causing complete spasm inhibition) [2] | ANTISPASMODIC ACTIVITY ACHOL (dose causing complete spasm inhibition) [3] | LD50 [4] |
| --- | --- | --- | --- | --- | --- |
| CC(=O)O[C@@H](c1ccc2c(c1)CCS2)[C@H](C)NCCCCc1ccccc1 (relative stereo) [No 113] | + (reduction lower than 10 mm Hg) |  |  |  |  |
| CC(NCCCCc1ccccc1)C(O)c1ccc2c(c1)CCCC2 (stereo not shown) [No 171] | + (reduction lower than 10 mm Hg) | +++ | 0.8 μg per ml | 0.8 μg per ml |  |
| CC(C(O)c1ccc2c(c1)CCC2)N1CCOC(c2ccccc2)C1C (stereo not shown) [No 177] | ++ (reduction of 10 to 20 mm Hg) |  | 1.7 μg per ml | 1.7 μg per ml |  |
| CC1Cc2cc(C(O)C(C)NCCCc3ccccc3)ccc2O1 (stereo not shown) [No 69] | +++ (reduction higher than 20 mm Hg) | ++ | 8.3 μg per ml | 16.7 μg per ml |  |
| C[C@H](NCCCCc1ccccc1)[C@@H](O)c1ccc2c(c1)CCS2 (relative stereo) [No 98] | + (reduction lower than 10 mm Hg) |  |  |  |  |
| CC1Cc2cc(C(O)C(C)NCCCc3ccccc3)ccc2S1 (stereo not shown) [No 67] | +++ (reduction higher than 20 mm Hg) | +++ | 1.7 μg per ml | 1.7 μg per ml |  |
| CC(=O)OC(c1ccc2c(c1)CCS2)C(C)NCCCCc1ccccc1 (stereo not shown) [No 112] | +++ (reduction higher than 20 mm Hg) | +++ | 0.3 μg per ml | 3.3 μg per ml |  |
| Cc1ccc(CCNC(C)C(O)c2ccc3c(c2)CC(C)S3)cc1 (stereo not shown) [No 71] | +++ (reduction higher than 20 mm Hg) | +++ | 0.8 μg per ml | 0.8 μg per ml |  |
| CC(NCCCC(=O)c1ccc(F)cc1)C(O)c1ccc2c(c1)CCC2 (stereo not shown) [No 175] | +++ (reduction higher than 20 mm Hg) | ++ | 0.8 μg per ml | 0.8 μg per ml |  |
| 1-(2-methyl-2,3-dihydro-5-benzo[b]furanyl-2-[4-(p-chlorophenyl)butylamino]- 1-propanol [No 65] | +++ (reduction higher than 20 mm Hg) | ++++ | 1.7 μg per ml | 1.7 μg per ml |  |
| C#CC(C)(C)NC(C)C(O)c1ccc2c(c1)CCCS2 (stereo not shown) [No 44] | +++ (reduction higher than 20 mm Hg) | ++ | 16.7 μg per ml | 8.3 μg per ml |  |
| CC(C(O)c1ccc2c(c1)CCCS2)N1CCOC(c2ccccc2)C1C (stereo not shown) [No 110] | + (reduction lower than 10 mm Hg) | 0 | 0.8 μg per ml | 3.3 μg per ml |  |
| CC(NCCOc1ccc(C#N)cc1)C(O)c1ccc2c(c1)CCS2 (stereo not shown) [No 85] | +++ (reduction higher than 20 mm Hg) | +++ | 8.3 μg per ml | 16.7 μg per ml |  |
| COCCOCCCNC(C)C(O)c1ccc2c(c1)CCCS2 (stereo not shown) [No 81] | +++ (reduction higher than 20 mm Hg) | ++ | 16.7 μg per ml | 16.7 μg per ml |  |
| CC(NCCOc1ccc(C(C)(C)C)cc1)C(O)c1ccc2c(c1)CCCS2 (stereo not shown) [No 107] |  | +++ | 0.8 μg per ml | 0.8 μg per ml | > 4000 mg/kg |
| CC(NCCOc1ccc(C(C)(C)C)cc1)C(O)c1ccc2c(c1)CCC2 (stereo not shown) [No 176] |  | +++ | 0.17 μg per ml | 0.8 μg per ml | > 4000 mg/kg |

| Molecule | ANTIHYPERTENSIVE ACTIVITY [1] | VASODILATOR ACTIVITY (femoral artery) | ANTISPASMODIC ACTIVITY HIST. (dose causing complete spasm inhibition) [2] | ANTISPASMODIC ACTIVITY ACHOL (dose causing complete spasm inhibition) [3] | LD50 [4] |
| --- | --- | --- | --- | --- | --- |
| CC(NCCCN1CCCC1=O)C(O)c1ccc2c(c1)CCCS2 (stereo not shown) [No 77] |  | 0 | 0.8 μg per ml | 1.7 μg per ml | 235 mg/kg |
| CC(C)NC(C)C(O)c1ccc2c(c1)CCS2 (stereo not shown) [No 33] |  | +++ | 16.7 μg per ml | 16.7 μg per ml | 355 mg/kg |
| CCCCOCCCNC(C)C(O)c1ccc2c(c1)CCCS2 (stereo not shown) [No 50] |  | +++ | 1.7 μg per ml | 1.7 μg per ml | 900 mg/kg |
| Cc1ccc(CCCCNC(C)C(O)c2ccc3c(c2)CCCCS3)cc1 (stereo not shown) [No 30] | +++ (reduction higher than 20 mm Hg) | +++ | 1.7 μg per ml | 0.8 μg per ml |  |
| CCCCCCCCNC(C)C(OC(=O)C(C)C)c1ccc2c(c1)CCCS2 (stereo not shown) [No 139] | +++ (reduction higher than 20 mm Hg) |  |  |  |  |
| Cc1ccc(CCCCNC(C)C(O)c2ccc3c(c2)CCC3)cc1 (stereo not shown) [No 166] | ++ (reduction of 10 to 20 mm Hg) | +++ | 0.8 μg per ml | 0.8 μg per ml |  |
| CC(NCCCN1CCCC1)C(O)c1ccc2c(c1)CCCS2 (stereo not shown) [No 59] |  | +++ | 3.3 μg per ml | 3.3 μg per ml | 1120 mg/kg |
| Cc1ccc(CCCCNC(C)C(O)c2ccc3c(c2)CC(C)O3)cc1 (stereo not shown) [No 90] | +++ (reduction higher than 20 mm Hg) | ++++ | 0.8 μg per ml | 1.7 μg per ml |  |
| CCCCOCCOCCCNC(C)C(O)c1ccc2c(c1)CCCS2 (stereo not shown) [No 72] |  | ++ | 1.7 μg per ml | 1.7 μg per ml | 880 mg/kg |
| CCCCCCCCNC(C)C(O)c1ccc2c(c1)SCCS2 (stereo not shown) [No 101] | ++ (reduction of 10 to 20 mm Hg) | +++ | 0.8 μg per ml | 0.8 μg per ml |  |
| CCCCOCCCNC(C)C(O)c1ccc2c(c1)CC(C)O2 (stereo not shown) [No 74] | + (reduction lower than 10 mm Hg) | ++ | 8.3 μg per ml | 8.3 μg per ml |  |
| CC(CCCc1ccccc1)NC(C)C(O)c1ccc2c(c1)CCCS2 (stereo not shown) [No 42] | +++ (reduction higher than 20 mm Hg) | +++ | 1.7 μg per ml | 1.7 μg per ml |  |
| 1-(2,3-dihydro-5-benzo[b]thienyl)-2-(4-phenylbutylamino)-1-propanol [Example 18] | +++ (reduction higher than 20 mm Hg) | ++++ | 0.8 μg per ml | 0.33 μg per ml |  |
| CC1Cc2cc(C(O)C(C)NCCCN3CCCC3)ccc2O1 (stereo not shown) [No 62] |  | 0 | > 16.7 μg per ml | > 16.7 μg per ml | 885 mg/kg |
| CC1Cc2cc(C(O)C(C)NCCCOc3ccccc3)ccc2S1 (stereo not shown) [No 64] | +++ (reduction higher than 20 mm Hg) | +++ | 1.7 μg per ml | 1.7 μg per ml |  |
| CC(=O)Nc1ccc(OCCNC(C)C(O)c2ccc3c(c2)CCS3)cc1 (stereo not shown) [No 86] |  | +++ | 1.7 μg per ml | 16.7 μg per ml | 1420 mg/kg |

From patent US4638070A, “Heterocyclic amino-alcohol derivatives” (Continental Pharma, priority 1980, dated 1987)
